The values that follow come from patent US7102009B2, “Substituted amine derivatives and methods of use” (Amgen Inc., priority 2001, dated 2006).

This test concerns Human Umbilical Vein Endothelial cells (VEGF-stimulated HUVEC proliferation). Briefly: HUVEC Proliferation Assay (VEGF-stimulated). Format: cell-based. Particulars: VEGF 50 ng/mL, 72 h incubation, CyQuant readout, read-out: inhibited VEGF-stimulated HUVEC proliferation at a level below (IC50). Put shortly: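 Pooled-donor HUVECs (passage 2–3) seeded in DMEM+10% FBS for 22 h, then pre-treated 2–3 h with five-point, five-fold compound dilutions (0.25% DMSO final). Stimulated with 50 ng/mL VEGF (bFGF 20 ng/mL on separate plates) for 72 h at 37 °C. CyQuant fluorescence (485/530 nm) after freeze-thaw; IC50 from 4-parameter fit.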

In the case of `CC1(C)CN(S(C)(=O)=O)c2cc(NC(=O)c3cccnc3Nc3ccc4cn[nH]c4c3)ccc21` [Example 625, N-(3,3-dimethyl-1-(methylsulfonyl)-2,3-dihydro-1H-indol-6-yl)-2-(1H-indazol-6-ylamino)-3-pyridinecarboxamide], the IC50 is less than 0.05 µM.

Take `CC(C)(C)c1ccc(NC(=O)c2cccnc2Nc2ccc3cn[nH]c3c2)cc1N1CCNCC1` [Example 98, N-(4-tert-Butyl-3-piperazin-1-yl-phenyl)-2-(1H-indazol-6-ylamino)-nicotinamide]: the IC50 was less than 0.05 µM.

Turning to `CC(=O)N1CCC[C@@H]1COc1cc(NC(=O)c2cccnc2Nc2ccc3cn[nH]c3c2)cc(C(F)(F)F)c1` [Example 580, N-(3-((((2R)-1-Acetyl-2-pyrrolidinyl)methyl)oxy)-5-(trifluoromethyl)phenyl)-2-(1H-indazol-6-ylamino)-3-pyridinecarboxamide], the IC50 was less than 0.05 µM.

For the molecule `Cc1cc(=O)[nH]c2cc(NC(=O)c3cccnc3Nc3ccc4cn[nH]c4c3)ccc12` [Example 14, [2-(1H-Indazol-6-ylamino)(3-pyridyl)]-N-(4-methyl-2-oxo-1,2-dihydroquinol-7-yl)carboxamide], the IC50 was less than 0.05 µM.

As to `CN1CCN(CCCc2ccc(NC(=O)c3cccnc3Nc3ccc4cn[nH]c4c3)cc2)CC1` [Example 61, [2-(1H-Indazol-6-ylamino)(3-pyridyl)]-N-{4-[3-(4-methylpiperazinyl)propyl]phenyl}carboxamide], the IC50 is less than 0.05 µM.

Take `CN1CCC(N2CC(C)(C)c3ccc(NC(=O)c4cccnc4Nc4ccc5cn[nH]c5c4)cc32)CC1` [Example 48, N-[3,3-Dimethyl-1-(1-methyl(4-piperidyl))indolin-6-yl][2-(1H-indazol-6-ylamino)(3-pyridyl)]carboxamide]: the IC50 was less than 0.05 µM.

For `CN1CCN(c2cc(NC(=O)c3cccnc3Nc3ccc4cn[nH]c4c3)ccc2C(C)(C)C)CC1` [Example 31, N-[4-(tert-Butyl)-3-(4-methylpiperazinyl)phenyl][2-(1H-indazol-6-ylamino)(3-pyridyl)]carboxamide], the IC50 is less than 0.05 µM.

Turning to `CN1CC(C)(C)Oc2ccc(NC(=O)c3cccnc3Nc3ccc4cn[nH]c4c3)cc21` [Example 92, 2-(1H-Indazol-6-ylamino)-N-(2,2,4-trimethyl-3,4-dihydro-2H-benzo[1,4]oxazin-6-yl)-nicotinamide], the IC50 is less than 0.05 µM.

Consider `O=C(Nc1ccc(-c2ccccc2)cc1)c1cccnc1Nc1ccc2cn[nH]c2c1` [Example 45, [2-(1H-Indazol-6-ylamino)(3-pyridyl)]-N-(4-phenylphenyl)carboxamide], for which the IC50 was less than 0.05 µM.

In the case of `CC(C)c1cccc(NC(=O)c2cccnc2Nc2ccc3cn[nH]c3c2)c1` [Example 6, [2-(1H-Indazol-6-ylamino)(3-pyridyl)]-N-[3-(methylethyl)phenyl]carboxamide], the IC50 was less than 0.05 µM.

Regarding `O=C(Nc1cc(CN2CCNCC2)cc(C(F)(F)F)c1)c1cccnc1Nc1ccc2cn[nH]c2c1` [Example 125, 2-(1H-Indazol-6-ylamino)-N-(3-piperazin-1-ylmethyl-5-trifluoromethyl-phenyl)-nicotinamide], the IC50 is less than 0.05 µM.

Consider `O=C(Nc1cc(NC(=O)c2cccnc2Nc2ccc3cn[nH]c3c2)cc(C(F)(F)F)c1)O[C@H]1CCOC1` [Example 581, (3S)-Tetrahydro-3-furanyl 3-(((2-(1H-indazol-6-ylamino)-3-pyridinyl)carbonyl)amino)-5-(trifluoromethyl)phenylcarbamate], for which the IC50 was less than 0.05 µM.

Turning to `CC(C)(C)c1ccc(NC(=O)c2cccnc2Nc2ccc3cn[nH]c3c2)cc1NCCN1CCOCC1` [Example 116, N-[4-tert-Butyl-3-(2-morpholin-4-yl-ethylamino)-phenyl]-2-(1H-indazol-6-ylamino)-nicotinamide], the IC50 was less than 0.05 µM.

For `O=C(Nc1ccc(C(F)(F)F)cc1)c1cccnc1Nc1ccc2cn[nH]c2c1` [Example 50, [2-(1H-Indazol-6-ylamino)(3-pyridyl)]-N-[4-(trifluoromethyl)phenyl]carboxamide], the IC50 is less than 0.05 µM.

For the molecule `CC1(C)CC(=O)Nc2nc(NC(=O)c3cccnc3Nc3ccc4cn[nH]c4c3)ccc21` [Example 593, N-(5,5-Dimethyl-7-oxo-5,6,7,8-tetrahydro-[1,8]naphthyridin-2-yl)-2-(1H-indazol-6-ylamino)-nicotinamide], the IC50 was less than 0.05 µM.

Take `O=C(Nc1ccc2c(C(F)(F)F)cc(=O)oc2c1)c1cccnc1Nc1ccc2cn[nH]c2c1` [Example 120, 2-(1H-Indazol-6-ylamino)-N-(2-oxo-4-trifluoromethyl-2H-chromen-7-yl)-nicotinamide]: the IC50 was less than 0.05 µM.

Take `CC(=O)N1CC(C)(C)Oc2ccc(NC(=O)c3cccnc3Nc3ccc4cn[nH]c4c3)cc21` [Example 89, N-(4-Acetyl-2,2-dimethyl-3,4-dihydro-2H-benzo[1,4]oxazin-6-yl)-2-(1H-indazol-6-ylamino)-nicotinamide]: the IC50 was less than 0.05 µM.
